Test results published in a melting point compilation (Tetko et al.; mined from patent text by program, amines drawn as free bases though some values may be those of a salt).

Row | Compound | melting point
1 | CCCCCCCCC1(C)Cc2ccc(-c3nc4cc(CCCC)ccc4o3)cc2C1=O (configuration not stated) | 93 °C
2 | Nc1ncc(-c2cc(C(F)(F)F)cc(C(F)(F)F)c2)nc1C(=O)Nc1cccnc1 | 220 to 222 °C
3 | CCCn1c2cc(Cl)ccc2c(=O)c2cccn21 | 107 to 108 °C
4 | CC1(Cn2nc(-c3ccc(Br)cc3)oc2=O)Cn2cc([N+](=O)[O-])nc2O1 (configuration not stated) | 231 to 233 °C
5 | CC(Sc1nc(N)cc(C(F)(F)F)n1)c1cc2ccoc2cn1 (configuration not stated) | 180 to 182 °C
6 | CCCCCCCCCCCCCCC[C@H]1O[C@@H]1CO | 77 to 78 °C
7 | O=C(Nc1ccccc1)OCc1cn(-c2cc3cc(C(=O)O)c(=O)[nH]c3cc2C(F)(F)F)cn1 | 178 to 180 °C
8 | COC(=O)c1ccc(O)c(C(=O)CC(=O)c2cc(C)ccc2OC(C)C)c1 | 85 to 86 °C
9 | CC(=O)N[C@@H](C)COc1cc2oc(-c3ccc(OC[C@H]4CC4(F)F)c(F)c3)nc2cn1 | 181 °C
10 | CCOC(=O)Cn1c(=O)c(=O)[nH]c2cc(C(F)(F)F)c(-n3c(C)ccc3C)cc21 | 262 to 263 °C
11 | CCC(CC)Nc1c([N+](=O)[O-])cc(C)c(COC(=O)COc2ccc(Cl)cc2Cl)c1[N+](=O)[O-] | 103 to 106 °C
12 | N#Cc1ccc(N(Cc2ccc(OS(N)(=O)=O)c(Cl)c2)n2cnnc2)cc1-c1cc2ccccc2o1 | 214 to 215 °C
13 | CC1C2=C(CN=C(c3ccccc3Cl)c3cc(Cl)ccc32)C(=O)N1CC(N)=O (configuration not stated) | 221 to 222 °C
14 | C[C@](O)(COc1ccc(Cl)cc1)C(=O)Nc1ccc(C#N)c(C(F)(F)F)c1 | 146 to 148 °C
15 | CN1C(=O)CC(c2ccccc2)C1C(O)c1ccc(-c2ccc(F)c(Cl)c2)s1 (configuration not stated) | 194 °C
16 | O=C(c1ccc(Oc2ccc(Oc3ccc(C(=O)C(Cl)(Cl)Cl)cc3)cc2)cc1)C(Cl)(Cl)Cl | 215 to 217 °C
17 | Nc1nc(N)c(-c2cc(Cl)cc(Cl)c2Cl)c(CF)n1 | 215 to 217 °C
18 | CCCOc1ccc(CC(C)=O)cc1S(N)(=O)=O | 106 to 107 °C
19 | CSc1nnc2c3ccccc3c(-c3ccccc3)nn12 | 220 to 221 °C
20 | NS(=O)(=O)c1cccc(C2(O)CCCCC2)c1 | 172 to 176 °C
21 | O=C(O)CNS(=O)(=O)c1ccc(N2CCN(c3ccccc3)CC2)cc1 | 120 to 124 °C
22 | COc1ccc(/C=C/C2=NS(=O)(=O)c3ccccc3N2)cc1OC | 276 to 279 °C
23 | COc1cc(C(=O)Cc2nnnn2C)c(N)cc1Cl | 178 to 181 °C
24 | c1ccc2c(c1)CCc1c(CN3CCN(c4ccc5ccccc5n4)CC3)n[nH]c1-2 | 154 to 155 °C
25 | CC1(C)CCC(N2c3ccccc3Oc3ccc(Cl)cc32)=N1 | 118 to 120 °C

Row | Compound | melting point
26 | COC(=O)C1=C(C)NC(C)=C(S(=O)(=O)c2ccc(OC)cc2)C1c1ccccc1Cl (configuration not stated) | 176 to 178 °C
27 | O=S(=O)(NCCSc1cc(F)c(OCCO)c(F)c1)c1ccc(Cl)cc1 | 43.5 to 45 °C
28 | CC(Cc1cc(F)cc2c(Cl)coc12)NC(=O)OC(C)(C)C (configuration not stated) | 127 to 129 °C
29 | CS(=O)(=O)Nc1ccc(/C=C\COCCCCCCO)cc1 | 65 to 67 °C
30 | CC(C)c1[nH]c2ccccc2c1Sc1ccc(O)cc1 | 116 °C
31 | Cc1cccc(NC(=O)c2cc(=O)[nH]c3ccc(C(=O)c4ccc(Cl)cc4)cc23)c1 | 230 °C
32 | O=C1CCC(N2Cc3c(OCc4ccc(CN5Cc6ccccc6C5)cc4)cccc3C2=O)C(=O)N1 (configuration not stated) | 153 to 155 °C
33 | COc1ccc2c(c1)C=Cc1cc(C)ccc1C2c1cn(-c2ccnc(N(C)CC(=O)Nc3nc(CC(=O)O)cs3)n2)c(=O)[nH]c1=O (configuration not stated) | 186 °C
34 | CCOC(=O)COC(=O)c1cc(S(N)(=O)=O)c(Cl)cc1NCc1ccco1 | 46 °C
35 | O=c1[nH]c2ccc([C@H]3CC[C@H](NCCCc4ccccc4)CC3)cc2o1 | 166 to 170 °C
36 | CCOC(=O)Cc1nc(-c2ccc(F)cc2)oc1CC(C)C | 60 to 61 °C
37 | c1ccc(-c2ccc3sc(-c4nc(COc5ccc(CCCn6ccnc6)cc5)co4)cc3c2)cc1 | 168 to 169 °C
38 | Cc1c(Cl)ccc(OC(C)C(=O)O)c1Cl (configuration not stated) | 150 °C
39 | Nc1ccc(CON=Cc2csc(N)n2)cc1 | 181 to 183 °C
40 | COc1ccc(C(=O)C2=C(c3ccccc3)c3ccccc3S2=O)cc1 (configuration not stated) | 118 to 120 °C
41 | OCCCc1nc(-c2ccccc2)co1 | 55 to 56 °C
42 | CCCCCCCCCCCCCCOc1cc(C(=O)OC)ccc1OC | 77 to 79 °C
43 | COC(=O)c1ccc(Cl)c([N+](=O)[O-])c1Cl | 72 to 74 °C
44 | CC(=Cc1ccc(O)cc1)c1ccc2c(c1)C(C)(C)CC2(C)C | 137 °C
45 | COc1ccc(C(=O)C=Cc2ccccc2)cc1C=CC(=O)O | 204 °C
46 | COC(=O)CCCCCc1c(OC)cc(C(C)(C)C)c(O)c1NC(=O)NNC(=O)Nc1cc(OC)cc(C(C)(C)C)c1O | 157 to 159 °C
47 | Cc1cc(Br)c(Cl)cc1Cl | 82.5 to 84 °C
48 | NCCCCn1cnc(-c2ccc(F)cc2)c1 | 138 to 140 °C
49 | CN(C)C(=O)Nc1c(C(=O)c2occc2CO)[nH]c2cc(Cl)ccc12 | 238 °C
50 | CC(C)n1nc(-c2c(-c3ccccc3)nn3ccc(N4CCN(C(=O)CN(C)C)CC4)cc23)ccc1=O | 129 to 130 °C

Row | Compound | melting point
51 | COC(=O)CCc1ccc(OCC(C)NCC(O)c2cccc(Cl)c2)cc1 (configuration not stated) | 65 to 73 °C
52 | CNc1nc(-c2ccccc2)c(-c2nc3ccccc3c(=O)n2-c2ccc(C)cc2)s1 | 192 to 193 °C
53 | CC(=O)NC[C@H]1CN(c2ccc3c(c2)OCCCC3=O)C(=O)O1 | 123 to 128 °C
54 | O=C(Cl)c1ccc(Cl)c(OCCn2cnnn2)c1Cl | 69 to 73 °C
55 | COc1ccc(C2Sc3c(ccc4ccccc34)N(CCN(C)C)C(=O)C2OC(=O)c2cccnc2)cc1 (configuration not stated) | 144 to 145 °C
56 | C[Si](CCSCCNC(=O)n1cc(F)c(=O)[nH]c1=O)(c1ccccc1)c1ccccc1 | 119 to 120 °C
57 | Cc1cc(C(=O)c2cc(C(F)(F)F)cc(C(F)(F)F)c2)ccc1N(C)C | 145 to 147 °C
58 | Cc1ccc(OCC(O)CNC(C)(C)C)c([N+](=O)[O-])c1[N+](=O)[O-] (configuration not stated) | 104 to 106 °C
59 | C=C1C2CCCCC2CC2C(OC)OCC12 (configuration not stated) | 53 to 55 °C
60 | O=C(O)c1ccc(Cc2ccc([N+](=O)[O-])cc2)cn1 | 178 to 182 °C
61 | Nc1cccc(Nc2ncnc3[nH]cc(C(=O)c4ccccc4)c23)c1 | 280 to 282 °C
62 | COc1cc(F)ccc1OCCN1C(=O)c2ccccc2C1=O | 102 to 104 °C
63 | O=C(O)c1ccc(-c2nc(-c3ccc(F)cc3)c(-c3ccncc3)[nH]2)cc1 | 289 to 290 °C
64 | CC(=O)N(C)CCc1coc2ccc3c(c12)CCCO3 | 82 °C
65 | Cc1cc(O)ccc1N1CCc2c(C)nc3ccccc3c21 | 315 to 318 °C
66 | Cc1c2c(c(C)c3c1NCC3)OC(C)(C)C2 | 105 to 107 °C
67 | O=C(NC(=O)c1cc(F)c(F)cc1Cl)Nc1ccc(C(=O)O)cc1OC(F)(F)F | 236 °C
68 | Nc1noc(-c2ccc(C(F)(F)F)cc2)c1Cl | 115 to 118 °C
69 | CC(C)C[C@@H](C=O)NC(=O)[C@H](Cc1c[nH]cn1)NC(=O)[C@H](Cc1ccc2ccccc2c1)NC(=O)OCc1ccccc1 | 110 to 112 °C
70 | O=c1cc(Cc2c[nH]c3ccccc23)[nH]n1C1CCCCC1 | 192 to 194 °C
71 | OC[C@H]1CCCN1c1cc(N2CCc3ccccc3C2)c2ccccc2n1 | 74 to 80 °C
72 | COC(=O)c1nc(CN=[N+]=[N-])n2c1CN=C(c1ccccc1Cl)c1cc(Cl)ccc1-2 | 187 to 189 °C
73 | CC[Si](CC)(c1ccc(N(c2ccccc2)c2ccccc2)cc1)c1ccc(N(c2ccccc2)c2ccccc2)cc1 | 154 to 155 °C
74 | N#Cc1ccc(CN2CC=C(/C=C/c3ccccc3)CC2)cc1 | 155 to 157 °C
75 | O=C(OCCOCn1cnc2c(Cl)nc(Cl)nc21)c1ccccc1 | 121 to 125 °C

Row | Compound | melting point
76 | COC(=O)C(CO)NS(=O)(=O)c1ccc(OC)cc1 (configuration not stated) | 92 to 94 °C
77 | CCOc1nn2c(-c3ccccc3Br)nnc2c2ccccc12 | 157 to 158 °C
78 | CC(=O)Nc1cc2c(cc1Cl)CCN(C)C[C@@H]2c1ccccc1 | 105 to 110 °C
79 | CCCCc1n[nH]c(=S)n(N)c1=O | 131 °C
80 | CCCCc1nc2c(N)nc3ccc(OCc4ccccc4)cc3c2n1CCCCNC(=O)N1CCOCC1 | 177 to 179 °C
81 | Cc1cc(C)cc(-c2cnn3c(-c4cccc(C#N)c4)ccnc23)c1 | 147 °C
82 | Cc1cnc(C(=O)c2[nH]c3ccc(Cl)cc3c2CC(=O)O)cc1C | 245 to 246 °C
83 | CCOC(=O)c1ccc(-n2cnnc2S)cc1 | 194 to 196 °C
84 | CC(C)(C)c1cccc(S(=O)(=O)n2c(Cc3ccc(C(=O)O)cc3F)cc3cc(C(F)(F)F)ccc32)c1 | 177 °C
85 | O=C1CC(c2csc(-n3ccnc3)n2)=Nc2ccc(-c3ccccc3F)cc2N1 | 194 to 197 °C
86 | C[C@H]1[C@H](O)C2(CC2)C(=O)N1c1ccc(C#N)c(C(F)(F)F)c1 | 109 to 110 °C
87 | COC(=O)c1ccccc1C=CC(=O)N1CCc2c([nH]c3ccccc23)C1c1ccc2c(c1)OCO2 (configuration not stated) | 203 to 204 °C
88 | O=C(Cl)c1cccc(N2CCOCC2)c1 | 219 to 220 °C
89 | Cc1ccccc1[C@@H]1CN(C(=O)C2CCN(C(=O)CO)CC2)CC[C@H]1C(=O)N(C)Cc1cc(C(F)(F)F)cc(C(F)(F)F)c1 (relative stereo) | 173 to 174 °C
90 | COC(=O)C(F)(F)CC(C)C1CCC2C3CC=C4CC(OC(C)=O)CCC4(C)C3CCC12C (configuration not stated) | 132 °C
91 | N#CC=C1CCc2cnc3c(c21)CCO3 | 153 to 155 °C
92 | CC(C)n1nc(-c2c(-c3ccccc3)nn3ccc(Oc4ccncc4)cc23)ccc1=O | 218 to 220 °C
93 | Nc1cc(C(=O)O)cc(S(N)(=O)=O)c1-c1ccccc1 | 232 to 237 °C
94 | Clc1ccc(-c2cc3nccc(C4CC4)n3n2)cc1 | 137 to 138 °C
95 | CCC12OC1C(=O)C(Nc1ncnc3cc(OC)c(OC)cc13)=CC2=O (configuration not stated) | 202 to 204 °C
96 | CN1CCN(c2nn3ccnc3c3c2CCCC3)CC1 | 79.5 °C
97 | OC1CSC(Oc2cncc(-c3ccccc3F)c2)C(O)C1O (configuration not stated) | 206 to 208 °C
